What was measured:
full-length AmbB = target: T1, full-length AmbB (Pseudomonas aeruginosa, UniProt Q9I1H0); test: […]-alanine aminoacylation/TCA precipitation radioassay; colorimetric pyrophosphate adenylation assay; assay type: biochemical; details: 5 mM ATP, 5 mM MgCl2; radioassay with labelled compound
T1 construct: full length, cleavable N-terminal SUMO tag (pET28a), NiNTA purified, E. coli host

AmbB T–C [1] = target: T2, AmbB T–C (Pseudomonas aeruginosa, UniProt Q9I1H0); test: X-ray crystallography, […] Å; LC-MS; assay type: binding; details: covalent; on Ser768 of T domain, arm in donor channel of C domain
T2 construct: T-C bidomain, residues 727-1249, GST tag cleaved (pGEX-6P-1), E. coli host, holo form made with Sfp; Ppant on Ser768
T2 sequence (Q9I1H0 727-1249): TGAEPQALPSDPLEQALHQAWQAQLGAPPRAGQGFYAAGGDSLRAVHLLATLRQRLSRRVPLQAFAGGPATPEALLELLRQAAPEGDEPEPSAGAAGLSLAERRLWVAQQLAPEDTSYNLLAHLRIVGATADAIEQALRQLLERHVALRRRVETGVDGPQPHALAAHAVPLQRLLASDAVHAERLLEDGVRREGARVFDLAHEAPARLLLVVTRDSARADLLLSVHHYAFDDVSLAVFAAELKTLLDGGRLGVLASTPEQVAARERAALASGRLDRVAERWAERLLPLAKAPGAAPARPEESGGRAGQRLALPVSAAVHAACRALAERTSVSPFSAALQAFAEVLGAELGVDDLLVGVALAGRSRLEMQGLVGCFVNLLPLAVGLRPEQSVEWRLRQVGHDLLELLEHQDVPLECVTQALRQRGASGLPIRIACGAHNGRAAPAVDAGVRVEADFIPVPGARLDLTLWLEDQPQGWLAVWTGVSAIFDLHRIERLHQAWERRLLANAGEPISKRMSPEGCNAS

AmbB T–C [2] = target: T2, AmbB T–C; test: X-ray crystallography, […] Å; LC-MS; assay type: binding; details: covalent; on Ser768 of T domain, L-Ala thioester near His953 of C domain; possible Ppant/Ppant-L-Ala mixture

T1 sequence (Q9I1H0 whole entry): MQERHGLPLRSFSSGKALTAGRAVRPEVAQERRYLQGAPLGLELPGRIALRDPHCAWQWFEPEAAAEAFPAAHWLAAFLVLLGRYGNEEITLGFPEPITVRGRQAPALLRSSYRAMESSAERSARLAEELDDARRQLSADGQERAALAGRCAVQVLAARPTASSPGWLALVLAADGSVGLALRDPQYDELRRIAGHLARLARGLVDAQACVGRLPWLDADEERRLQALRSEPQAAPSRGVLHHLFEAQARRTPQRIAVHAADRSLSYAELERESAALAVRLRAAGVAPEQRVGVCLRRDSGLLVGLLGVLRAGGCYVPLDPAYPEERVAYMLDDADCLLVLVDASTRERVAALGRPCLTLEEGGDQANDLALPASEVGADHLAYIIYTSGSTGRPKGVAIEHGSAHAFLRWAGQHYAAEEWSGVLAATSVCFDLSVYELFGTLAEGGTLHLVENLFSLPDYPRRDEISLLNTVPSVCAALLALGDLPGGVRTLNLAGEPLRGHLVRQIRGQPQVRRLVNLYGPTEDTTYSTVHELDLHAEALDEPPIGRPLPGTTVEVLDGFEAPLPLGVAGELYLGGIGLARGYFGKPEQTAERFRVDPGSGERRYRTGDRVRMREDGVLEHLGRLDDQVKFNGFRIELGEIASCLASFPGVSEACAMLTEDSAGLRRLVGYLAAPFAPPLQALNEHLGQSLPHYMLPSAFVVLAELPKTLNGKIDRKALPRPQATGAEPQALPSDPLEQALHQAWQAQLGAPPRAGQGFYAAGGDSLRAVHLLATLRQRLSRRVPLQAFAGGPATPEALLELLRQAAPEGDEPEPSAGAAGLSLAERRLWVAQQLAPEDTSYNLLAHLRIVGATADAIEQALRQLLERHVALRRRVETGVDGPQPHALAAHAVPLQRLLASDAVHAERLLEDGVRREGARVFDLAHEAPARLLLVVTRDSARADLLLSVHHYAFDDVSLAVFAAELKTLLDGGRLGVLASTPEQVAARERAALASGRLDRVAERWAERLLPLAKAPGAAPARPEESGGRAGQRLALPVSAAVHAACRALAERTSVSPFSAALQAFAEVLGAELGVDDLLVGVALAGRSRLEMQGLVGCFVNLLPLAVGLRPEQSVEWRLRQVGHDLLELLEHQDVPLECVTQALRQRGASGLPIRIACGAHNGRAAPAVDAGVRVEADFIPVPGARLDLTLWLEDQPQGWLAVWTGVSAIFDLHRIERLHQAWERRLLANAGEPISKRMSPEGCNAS

SMILES: C[C@H](N)C(=O)O [L-Ala]
- 14C-alanine aminoacylation/TCA precipitation radioassay; colorimetric pyrophosph (full-length AmbB): apo full-length AmbB, which activates L-Ala (Supplementary Fig. S4a)

SMILES: CC(C)(COP(=O)(O)O)[C@@H](O)C(=O)NCCC(=O)NCCS [Ppant]
- X-ray crystallography, 2.2 Å; LC-MS (AmbB T–C [1]): Structure of holo AmbB T–C with Ppant (cyan stick) covalently attached to Ser768

SMILES: C[C@H](N)C(=O)SCCNC(=O)CCNC(=O)[C@H](O)C(C)(C)COP(=O)(O)O [Ppant-L-Ala]
- X-ray crystallography, 2.5 Å; LC-MS (AmbB T–C [2]): chains B and D exhibit relatively well-defined electron density for Ppant-L-Ala
